This is an account of results in patent US8088806B2 (Achillion Pharmaceuticals, Inc., priority 2005, dated 2012).

pEC50: −log10 of the molar value.

The subject of this assay is HCV replicon. Kind of assay: Replicon based assay of HCV replication inhibition (NPT ELISA). In kind it is cell-based, Hepatitis C virus. The note with it: Hepatitis C virus, replicon based assay of HCV replication inhibition; Table IV; read-out: Activity. A digest of the protocol:
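Huh-7 cells carrying a bicistronic HCV replicon (neo, EMCV-IRES-driven NS3–NS5B) treated overnight after seeding with usually 6 concentrations, 10 to 0.03 micromolar, for three days at 37° C without G418. Replication read as NPT level by captured ELISA; matched-DMSO wells and interferon alpha as controls.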
On the technique in general: In antiviral work, replicon cells carry a viral genome segment that copies itself.
Take `CC(C)=CCC/C(C)=C/COc1ccc(Nc2nc(-c3ccc(F)cc3)cs2)cc1C(F)(F)F` [compound 827, N-(4-((E)-3,7-dimethylocta-2,6-dienyloxy)-3-(trifluoromethyl)phenyl)-4-(4-fluorophenyl)thiazol-2-amine]: the pEC50 was below 5.00.
Next, `COc1ncc(-c2csc(Nc3ccc(OCCCCc4ccccc4)c(C(F)(F)F)c3)n2)cn1` [compound 828, N-(4-(4-phenylbutoxy)-3-(trifluoromethyl)phenyl)-4-(2-methoxypyrimidin-5-yl)thiazol-2-amine]: above 6.00; `COc1ncc(-c2csc(Nc3ccc(OCCCCc4ccc(C)cc4)c(C(F)(F)F)c3)n2)cn1` [compound 829, N-(4-(4-p-tolylbutoxy)-3-(trifluoromethyl)phenyl)-4-(2-methoxypyrimidin-5-yl)thiazol-2-amine]: above 6.00.
Next, `COc1ncc(-c2csc(Nc3ccc(OCCCc4cccnc4)c(C(F)(F)F)c3)n2)cn1` [compound 830, N-(4-(3-(pyridin-3-yl)propoxy)-3-(trifluoromethyl)phenyl)-4-(2-methoxypyrimidin-5-yl)thiazol-2-amine]: 5.00 to 6.00; `COc1ncc(-c2csc(Nc3ccc(OCCCc4ccccc4)c(C(F)(F)F)c3)n2)cn1` [compound 831, N-(4-(3-phenylpropoxy)-3-(trifluoromethyl)phenyl)-4-(2-methoxypyrimidin-5-yl)thiazol-2-amine]: above 6.00; `CCCCCOc1ccc2nc(NC(=O)c3cccnc3)sc2c1` [compound 832, N-(6-(pentyloxy)benzo[d]thiazol-2-yl)nicotinamide]: below 5.00.
On to `CCCCCCCN(C)Cc1ccc(Nc2nc(-c3cccnc3)cs2)cc1C(F)(F)F` [compound 833, N-(4-((heptyl(methyl)amino)methyl)-3-(trifluoromethyl)phenyl)-4-(pyridin-3-yl)thiazol-2-amine], for which the pEC50 was above 6.00.
`c1cncc(-c2csc(Nc3nc(CN4CCCCC4)cs3)n2)c1` [compound 834, 4-((piperidin-1-yl)methyl)-N-(4-(pyridin-3-yl)thiazol-2-yl)thiazol-2-amine]: the pEC50 was below 5.00.
Turning to `CCCCCCCCOc1ccc(Nc2nc(-c3cccnc3)c(C)s2)cc1C(F)(F)F` [compound 836, N-(3-(trifluoromethyl)-4-(octyloxy)phenyl)-5-methyl-4-(pyridin-3-yl)thiazol-2-amine], the pEC50 was above 6.00.
`Cc1sc(Nc2ccc(OCCCC3CCCC3)c(C(F)(F)F)c2)nc1-c1cccnc1` [compound 837, N-(4-(3-cyclopentylpropoxy)-3-(trifluoromethyl)phenyl)-5-methyl-4-(pyridin-3-yl)thiazol-2-amine]: the pEC50 is above 6.00.
In the case of `Cc1sc(Nc2ccc(OCCCCc3ccccc3)c(C(F)(F)F)c2)nc1-c1cccnc1` [compound 838, N-(4-(4-phenylbutoxy)-3-(trifluoromethyl)phenyl)-5-methyl-4-(pyridin-3-yl)thiazol-2-amine], the pEC50 was above 6.00.
Next, `Cc1sc(Nc2ccc(OCCCc3ccccc3)c(C(F)(F)F)c2)nc1-c1cccnc1` [compound 839, N-(4-(3-phenylpropoxy)-3-(trifluoromethyl)phenyl)-5-methyl-4-(pyridin-3-yl)thiazo1-2-amine]: above 6.00; `CCCCCCCCOc1ccc(Nc2nc(-c3cnc(O)nc3)cs2)cc1C(F)(F)F` [compound 840, 5-(2-(3-(trifluoromethyl)-4-(octyloxy)phenylamino)thiazol-4-yl)pyrimidin-2-ol]: above 6.00.
Next, `CCCCCCCCOc1ccc(Nc2nc(-c3ccc(OC)nn3)cs2)cc1C(F)(F)F` [compound 841, N-(3-(trifluoromethyl)-4-(octyloxy)phenyl)-4-(6-methoxypyridazin-3-yl)thiazol-2-amine]: above 6.00; `CCCCCCCCOc1ccc(Nc2nc(-c3cnc(Cl)c(C)c3)cs2)cc1C(F)(F)F` [compound 842, 4-(6-chloro-5-methylpyridin-3-yl)-N-(3-(trifluoromethyl)-4-(octyloxy)phenyl)thiazol-2-amine]: above 6.00; `CCCCCCCCOc1ccc(Nc2nc(-c3ccc(CNC(=O)OC(C)(C)C)nc3)cs2)cc1C(F)(F)F` [compound 843, tert-butyl (5-(2-(3-(trifluoromethyl)-4-(octyloxy)phenylamino)thiazol-4-yl)pyridin-2-yl)methylcarbamate]: above 6.00.
Next, `CCCCCCCCOc1ccc(Nc2nc(-c3ccc(CN)nc3)cs2)cc1C(F)(F)F` [compound 844, 4-(6-(aminomethyl)pyridin-3-yl)-N-(3-(trifluoromethyl)-4-(octyloxy)phenyl)thiazol-2-amine]: above 6.00; `Cc1ccc(CCCCOc2ccc(Nc3nc(-c4cccnc4)c(C)s3)cc2C(F)(F)F)cc1` [compound 845, N-(4-(4-p-tolylbutoxy)-3-(trifluoromethyl)phenyl)-5-methyl-4-(pyridin-3-yl)thiazol-2-amine]: above 6.00; `Cc1sc(Nc2ccc(OCCCc3cccnc3)c(C(F)(F)F)c2)nc1-c1cccnc1` [compound 846, N-(4-(3-(pyridin-3-yl)propoxy)-3-(trifluoromethyl)phenyl)-5-methyl-4-(pyridin-3-yl)thiazol-2-amine]: below 5.00.
Consider `CCN(CCOc1ccc(Nc2nc(-c3cccnc3)cs2)cc1C(F)(F)F)c1ccccc1` [compound 847], for which the pEC50 is above 6.00.
In the case of `FC(F)(F)c1cc(Nc2nc(-c3cccnc3)cs2)ccc1OCCOc1ccccc1` [compound 848, N-(4-(2-phenoxyethoxy)-3-(trifluoromethyl)phenyl)-4-(pyridin-3-yl)thiazol-2-amine], the pEC50 was above 6.00.
Take `CCCCCCCCOc1ccc(Nc2nc(-c3ccc(CC(=O)O)s3)cs2)cc1C(F)(F)F` [compound 849, 2-(5-(2-(3-(trifluoromethyl)-4-(octyloxy)phenylamino)thiazol-4-yl)thiophen-2-yl)acetic acid]: the pEC50 is above 6.00.
On to `O=C(O)Cc1ccc(-c2csc(Nc3ccc(OCCCC4CCCC4)c(C(F)(F)F)c3)n2)s1` [compound 850, 2-(5-(2-(4-(3-cyclopentylpropoxy)-3-(trifluoromethyl)phenylamino)thiazol-4-yl)thiophen-2-yl)acetic acid], for which the pEC50 was above 6.00.
As to `Cc1ccc(CCCCOc2ccc(Nc3nc(-c4ccc(CC(=O)O)s4)cs3)cc2C(F)(F)F)cc1` [compound 851, 2-(5-(2-(4-(4-p-tolylbutoxy)-3-(trifluoromethyl)phenylamino)thiazol-4-yl)thiophen-2-yl)acetic acid], the pEC50 was above 6.00.
Next, `Fc1cc(Nc2nc(-c3cccnc3)cs2)ccc1OCCCCc1cccs1` [compound 852, N-(4-(4-(thiophen-2-yl)butoxy)-3-fluorophenyl)-4-(pyridin-3-yl)thiazol-2-amine]: above 6.00.
For `Fc1cc(Nc2nc(-c3cccnc3)cs2)ccc1OCCCc1ccccc1` [compound 853, N-(4-(3-phenylpropoxy)-3-fluorophenyl)-4-(pyridin-3-yl)thiazol-2-amine], the pEC50 is above 6.00.
Take `Cc1sc(Nc2ccc(OCCCCc3cccs3)c(F)c2)nc1-c1cccnc1` [compound 854, N-(4-(4-(thiophen-2-yl)butoxy)-3-fluorophenyl)-5-methyl-4-(pyridin-3-yl)thiazol-2-amine]: the pEC50 was 5.00 to 6.00.
As for `Cc1sc(Nc2ccc(OCCCc3ccccc3)c(F)c2)nc1-c1cccnc1` [compound 855, N-(4-(3-phenylpropoxy)-3-fluorophenyl)-5-methyl-4-(pyridin-3-yl)thiazol-2-amine], the pEC50 is below 5.00.
On to `Cc1sc(Nc2ccc(OCC3CCCCC3)c(C(F)(F)F)c2)nc1-c1cccnc1` [compound 856, N-(4-(cyclohexylmethoxy)-3-(trifluoromethyl)phenyl)-5-methyl-4-(pyridin-3-yl)thiazol-2-amine], for which the pEC50 is above 6.00.
For the compound `CCCCCCCCOc1ccc(Nc2nc(-c3ccc(F)cc3)c(N)s2)cc1C(F)(F)F` [compound 857, N^2-(3-(trifluoromethyl)-4-(octyloxy)phenyl)-4-(4-fluorophenyl)thiazole-2,5-diamine], the pEC50 is above 6.00.
Next, `Nc1sc(Nc2ccc(OCc3ccccc3)cc2)nc1-c1ccc(F)cc1` [compound 858, N^2-(4-(benzyloxy)phenyl)-4-(4-fluorophenyl)thiazole-2,5-diamine]: 5.00 to 6.00.
Next, `CCCCCCCCOc1ccc(Nc2nc(C#N)c(N)s2)cc1C(F)(F)F` [compound 859, 2-(3-(trifluoromethyl)-4-(octyloxy)phenylamino)-5-aminothiazole-4-carbonitrile]: above 6.00; `FC(F)(F)c1cc(Nc2nc(-c3cccnc3)cs2)ccc1OCCCc1ccco1` [compound 860, N-(4-(3-(furan-2-yl)propoxy)-3-(trifluoromethyl)phenyl)-4-(pyridin-3-yl)thiazol-2-amine]: above 6.00; `Fc1cc(Nc2nc(-c3cccnc3)cs2)ccc1OCCCc1ccco1` [compound 861, N-(4-(3-(furan-2-yl)propoxy)-3-fluorophenyl)-4-(pyridin-3-yl)thiazol-2-amine]: above 6.00.
On to `CCCCCCCCN(C)c1ccc(Nc2nc(-c3cccnc3)c(C)s2)cc1C(F)(F)F` [compound 862, 2-(trifluoromethyl)-N^1-methyl-N^4-(5-methyl-4-(pyridin-3-yl)thiazol-2-yl)-N^1-octylbenzene-1,4-diamine], for which the pEC50 was above 6.00.
As to `CCCCCCCN(C)Cc1ccc(Nc2nc(-c3cccnc3)c(C)s2)cc1C(F)(F)F` [compound 863], the pEC50 is 5.00 to 6.00.
`FC(F)(F)c1cc(Nc2nc(-c3cccnc3)cs2)ccc1OCCSc1ccccc1` [compound 864, N-(4-(2-(phenylthio)ethoxy)-3-(trifluoromethyl)phenyl)-4-(pyridin-3-yl)thiazol-2-amine]: the pEC50 was above 6.00.
On to `CCCCCCCCOc1ccc(Nc2nc(-c3cnc(NC(C)=O)[nH]3)cs2)cc1C(F)(F)F` [compound 865, N-(5-(2-(3-(trifluoromethyl)-4-(octyloxy)phenylamino)thiazol-4-yl)-1H-imidazol-2-yl)acetamide], for which the pEC50 was above 6.00.
